Experimental data as given in ChEMBL document CHEMBL1201862, “PubChem BioAssay data set” (2004).
Activity calls are given as the source filed them. The rule behind the calls is not given here.

Biological target: T1, Exodeoxyribonuclease V (Escherichia coli (strain K12), UniProt P04993+P07648+P08394)
T1 sequence (P04993 whole entry): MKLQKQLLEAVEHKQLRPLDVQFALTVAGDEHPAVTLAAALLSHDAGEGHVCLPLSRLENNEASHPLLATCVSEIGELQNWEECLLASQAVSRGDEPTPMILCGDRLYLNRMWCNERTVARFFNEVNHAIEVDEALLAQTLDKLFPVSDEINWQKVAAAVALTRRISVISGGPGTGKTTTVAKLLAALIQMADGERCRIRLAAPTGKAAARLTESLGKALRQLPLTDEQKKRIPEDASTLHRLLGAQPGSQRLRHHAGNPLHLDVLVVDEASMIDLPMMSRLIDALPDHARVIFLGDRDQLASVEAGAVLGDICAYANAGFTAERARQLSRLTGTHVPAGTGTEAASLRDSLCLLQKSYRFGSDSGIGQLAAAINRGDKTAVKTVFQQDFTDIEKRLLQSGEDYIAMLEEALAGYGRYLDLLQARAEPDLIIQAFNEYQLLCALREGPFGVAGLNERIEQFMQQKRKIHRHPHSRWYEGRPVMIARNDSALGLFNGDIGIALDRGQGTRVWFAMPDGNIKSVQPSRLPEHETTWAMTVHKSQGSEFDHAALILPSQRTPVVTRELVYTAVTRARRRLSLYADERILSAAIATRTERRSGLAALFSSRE
T1 sequence (P07648 whole entry): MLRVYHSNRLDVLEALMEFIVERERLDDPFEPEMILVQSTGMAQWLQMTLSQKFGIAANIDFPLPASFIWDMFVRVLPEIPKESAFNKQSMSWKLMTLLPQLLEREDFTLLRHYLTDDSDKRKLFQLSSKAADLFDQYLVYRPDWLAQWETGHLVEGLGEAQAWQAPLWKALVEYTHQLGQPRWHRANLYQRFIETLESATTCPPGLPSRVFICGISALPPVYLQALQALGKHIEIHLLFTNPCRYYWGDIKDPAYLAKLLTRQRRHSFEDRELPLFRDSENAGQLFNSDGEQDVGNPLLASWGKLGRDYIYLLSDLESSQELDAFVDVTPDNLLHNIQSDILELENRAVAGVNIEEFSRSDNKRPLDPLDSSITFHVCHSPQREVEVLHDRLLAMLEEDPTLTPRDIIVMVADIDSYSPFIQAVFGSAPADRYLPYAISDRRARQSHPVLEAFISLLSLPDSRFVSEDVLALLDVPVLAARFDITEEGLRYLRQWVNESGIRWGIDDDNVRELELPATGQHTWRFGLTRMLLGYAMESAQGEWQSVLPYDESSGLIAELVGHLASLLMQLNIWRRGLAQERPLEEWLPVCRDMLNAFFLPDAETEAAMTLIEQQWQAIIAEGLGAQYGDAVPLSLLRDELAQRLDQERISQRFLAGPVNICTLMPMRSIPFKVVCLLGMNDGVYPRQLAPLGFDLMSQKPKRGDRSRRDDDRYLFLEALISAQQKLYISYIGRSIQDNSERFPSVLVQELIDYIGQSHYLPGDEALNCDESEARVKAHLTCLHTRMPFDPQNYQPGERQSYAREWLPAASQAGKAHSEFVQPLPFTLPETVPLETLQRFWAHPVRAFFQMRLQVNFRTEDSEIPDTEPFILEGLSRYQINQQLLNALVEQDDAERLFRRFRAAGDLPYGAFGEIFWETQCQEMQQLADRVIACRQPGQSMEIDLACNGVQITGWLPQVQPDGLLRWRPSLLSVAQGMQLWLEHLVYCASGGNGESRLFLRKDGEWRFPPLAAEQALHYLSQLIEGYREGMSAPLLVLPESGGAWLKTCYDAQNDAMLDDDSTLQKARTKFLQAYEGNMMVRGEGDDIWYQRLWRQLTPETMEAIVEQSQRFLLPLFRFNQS
T1 sequence (P08394 whole entry): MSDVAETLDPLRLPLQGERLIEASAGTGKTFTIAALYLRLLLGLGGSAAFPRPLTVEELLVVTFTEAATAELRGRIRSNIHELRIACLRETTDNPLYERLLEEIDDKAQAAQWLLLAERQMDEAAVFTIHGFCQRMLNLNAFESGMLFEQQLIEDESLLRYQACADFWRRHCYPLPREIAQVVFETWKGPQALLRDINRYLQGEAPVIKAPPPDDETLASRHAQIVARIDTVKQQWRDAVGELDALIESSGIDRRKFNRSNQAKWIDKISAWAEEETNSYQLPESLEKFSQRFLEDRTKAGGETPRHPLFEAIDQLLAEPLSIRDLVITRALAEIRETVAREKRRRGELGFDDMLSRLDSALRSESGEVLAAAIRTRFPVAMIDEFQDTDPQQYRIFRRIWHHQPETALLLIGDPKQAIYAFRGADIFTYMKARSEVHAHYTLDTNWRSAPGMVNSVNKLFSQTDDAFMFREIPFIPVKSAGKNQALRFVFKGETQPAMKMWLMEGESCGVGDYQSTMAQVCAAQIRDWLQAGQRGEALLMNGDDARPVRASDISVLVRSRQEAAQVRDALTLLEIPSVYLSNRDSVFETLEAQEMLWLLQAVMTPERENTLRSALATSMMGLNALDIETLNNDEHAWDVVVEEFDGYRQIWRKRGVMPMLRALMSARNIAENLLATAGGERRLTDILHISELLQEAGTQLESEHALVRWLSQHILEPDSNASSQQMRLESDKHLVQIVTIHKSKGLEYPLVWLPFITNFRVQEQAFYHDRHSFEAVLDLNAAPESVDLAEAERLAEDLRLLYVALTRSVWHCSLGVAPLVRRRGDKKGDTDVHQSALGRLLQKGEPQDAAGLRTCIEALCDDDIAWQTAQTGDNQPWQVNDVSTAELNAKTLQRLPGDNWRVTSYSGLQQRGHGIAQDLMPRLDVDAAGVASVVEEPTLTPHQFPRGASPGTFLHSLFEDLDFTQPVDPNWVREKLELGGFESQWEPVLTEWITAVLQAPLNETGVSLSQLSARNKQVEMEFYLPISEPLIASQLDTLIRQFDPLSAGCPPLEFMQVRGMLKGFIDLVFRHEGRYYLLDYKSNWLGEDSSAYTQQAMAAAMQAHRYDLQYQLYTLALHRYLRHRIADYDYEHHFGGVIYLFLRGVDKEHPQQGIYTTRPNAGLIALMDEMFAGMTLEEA
Experiment: E. coli RecBCD inhibitors, dose response, counter-screen for AddAB inhibitor project, absorbance, V66 E. coli, mutant T4 phage (AID 492957)
Format: functional, cell-based, Escherichia coli str. K-12 substr. MG1655

In the case of `O=[N+]([O-])c1ccc(N/N=C/c2ccc[nH]2)cc1`, the IC50 is reported as > 119 µM (inactive).
